Results published in PMC5321741, “Arylmethylamino steroids as antiparasitic agents” (Nature Communications, 2017).
In brackets after ≈: the same amount, converted by molar mass. Several values for one entry are separate records, joined by “and”; a condition that tells them apart may be missing. Identical values can stand only once. Like-named read-outs stand apart in the source and are kept apart here.

Tests used:
in vivo = assay: in vivo; set-up: species or system C57BL/6 mice; settings: C57BL/6, mouse
Procedure: The compound was applied at an accumulative dose of 100 mg kg^−1 (per os (p.o.). as well as intraperitoneally (i.p.)). The first application was 5 mg kg^−1, 2 h later 15 mg kg^−1, 2 h later 30 mg kg^−1 and again 2 h later 50 mg kg^−1. […] Moreover, we performed pharmacokinetics studies in mice, dosing i.v., i.p. and p.o. (Supplementary Table 5). […] In contrast, high exposure and sustained levels of ∼2 μM were obtained after i.p. dosing at 100 mg kg^−1.
Parameter (n=3/time point)
Supplementary Table 5. Mouse pharmacokinetics of compound 1o.

[1] = system: P. berghei GFP ANKA malaria strain; assay: P. berghei mouse model (Peter's test); type: in vivo, Plasmodium berghei in NMRI mice
Procedure: The animal experiments described here were performed at the Swiss Tropical and Public Health Institute (Swiss TPH, Basel, Switzerland), they were approved by the Swiss Cantonal Authorities (‘Kantonales Veterinäramt Basel Stadt') adhering to local and national regulations of laboratory animal welfare in Switzerland. The best compounds were tested in the murine P. berghei model essentially as described. The infection was initiated at day 0 with the P. berghei GFP ANKA malaria strain (donation from AP Waters and CJ Janse, Leiden University). From donor mice (female NMRI mice, 18–20 grams (about 3 weeks) from Charles River Germany) with ∼30% parasitaemia, heparinized blood was taken and diluted in physiological saline to 10^8 parasitized erythrocytes/ml. An aliquot (0.2 ml) of this suspension was injected intravenously into experimental and control groups of mice (female NMRI mice, 18–20 grams (about 3 weeks) from Charles River Germany). Usually, in untreated control mice parasitaemia rose regularly to ∼30% by day 3 post-infection. Control mice died between days 6 and 7 post infection. In the experiments described here, however, control animals (n=5) were killed on day 4 post infection for ethical reasons.
The steroid compounds were prepared at an appropriate concentration as a solution/suspension in Tween 80/alcohol (7:3, Tween 80 and absolute ethanol, respectively), followed by a 10x dilution in water. […] The route of administration was i.p., p.o., s.c. in a volume of 10 ml kg^−1.
The degree of infection (parasitaemia expressed in % of infected erythrocytes) was determined by FACS analysis on day 4 (96 h post infection). The difference of the mean infection rate of the control group (=100%) to the test group was calculated and expressed as a percent reduction. For example, activity determination with a mean of 2% parasitaemia in treated mice and a mean of 40% parasitaemia in the control animals is calculated as follows: (40−2%)/40% × 100=95% activity. The survival time in days was recorded up to 30 days after infection. A compound was considered curative if the animal survived to day 30 after infection with no detectable parasites (confirmed by light microscopy).

[2] = aqueous kinetic solubility; type: physicochemical; settings: kinetic from dmso stock
Procedure: Pharmacokinetic data were obtained for compound 1o at the Sanford-Burnham Medical Research Institute according to established procedures. Compound solubility in an aqueous solution was measured using an automated kinetic solubility method. The concentration of the compound in a saturated pH-buffered aqueous solution was determined via UV absorbance (250–498 nm) and compared with the spectra of a precipitation-free reference solution. The plasma stability of the compound was determined at a single concentration using species-specific plasma. The percentage of parent compound remaining after 3 h was determined via LC-MS/MS. The percentage of compound 1o bound to plasma proteins was determined through rapid equilibrium dialysis and quantified via LC-MS/MS. Metabolic stability of the compound was determined at a single concentration using species-specific liver microsomes that contained cytochrome P450s, flavin-monooxygenases, carboxyl-esterases, epoxide hydrolases, and other drug-metabolizing enzymes. The quantification was carried out via LC-MS/MS. Membrane permeability of compound 1o was measured using an in vitro model for the passive transport from the gastrointestinal tract into the blood system. A double-sink parallel artificial membrane permeability assay PAMPA, in a 96-well format was employed.

[3] = 4x 100 mg/kg i.p., recorded up to 30 days
[4] = 4x 100 mg/kg p.o., recorded up to 30 days

COc1ccc2c(c1)CCC1C2CC[C@@]2(C)C1CC[C@H]2NCc1cc2ccccc2cc1O (some centres unmarked) [1o]
AUC(0-t) (in vivo; ip, 100 mg/kg): 13000 ng·h/mL | Cmax (in vivo; ip, 100 mg/kg): 850 ng/mL | Tmax (in vivo; ip, 100 mg/kg): 3 h | bioavailability (in vivo; ip, 100 mg/kg): 24% | half-life (in vivo; ip, 100 mg/kg): > 8 h | AUC(0-t) (in vivo; iv, 1 mg/kg): 567 ng·h/mL | Vd (in vivo; iv, 1 mg/kg): 6.4 L/kg | clearance (in vivo; iv, 1 mg/kg): 29.6 mL/min/kg | half-life (in vivo; iv, 1 mg/kg): > 8 h | AUC(0-t) (in vivo; po, 100 mg/kg): 622 ng·h/mL | Cmax (in vivo; po, 100 mg/kg): 43 ng/mL | Tmax (in vivo; po, 100 mg/kg): 8.25 h | bioavailability (in vivo; po, 100 mg/kg): < 5% | half-life (in vivo; po, 100 mg/kg): > 8 h | % activity (reduction of parasitaemia) ([1]; 1x 100 mg/kg p.o.): 98% | % of control ([1]; 1x 100 mg/kg p.o.): 1.5% | Mouse survival in days, Average ([1]; 1x 100 mg/kg p.o.): 13 days | Mouse survival in days, individual mice M1-M3 ([1]; 1x 100 mg/kg p.o.): 14 days (2×) and 11 days | Parasitized RBC over 100, Average ([1]; 1x 100 mg/kg p.o.): 0.47 | Parasitized RBC over 100, individual mice M1-M3 ([1]; 1x 100 mg/kg p.o.): 0.30 and 0.60 and 0.50 | Parasitized RBC after 30 d (microscope), individual mice ([1]; 4x 100 mg/kg i.p.): 0.0 | % activity (reduction of parasitaemia) ([1]; 4x 100 mg/kg i.p., day 4): 99.8% | % of control ([1]; 4x 100 mg/kg i.p., day 4): 0.17% | Parasitized RBC over 100, Average ([1]; 4x 100 mg/kg i.p., day 4): 0.10 | Parasitized RBC over 100, individual mice M1-M3 ([1]; 4x 100 mg/kg i.p., day 4): 0.10 | Mouse survival in days, Average [1, 3]: > 30 days | Mouse survival in days, individual mice M1-M3 [1, 3]: 30 days | % activity (reduction of parasitaemia) ([1]; 4x 100 mg/kg p.o.): 99.8% | % of control ([1]; 4x 100 mg/kg p.o.): 0.22% | Parasitized RBC after 30 d (microscope), individual mice ([1]; 4x 100 mg/kg p.o.): 0.0 | Parasitized RBC over 100, Average ([1]; 4x 100 mg/kg p.o.): 0.13 | Parasitized RBC over 100, individual mice M1-M3 ([1]; 4x 100 mg/kg p.o.): 0.00 and 0.30 and 0.10 | Mouse survival in days, Average [1, 4]: 27 days | Mouse survival in days, individual mice M1-M3 [1, 4]: 30 days (2×) and 20 days | cure of mice ([1]; 4 × 100 mg kg−1 i.p.): all mice treated were cured | cure of mice ([1]; 4 × 100 mg kg−1 oral): two thirds of the animals were cured | solubility ([2]; Pion's buffer, aqueous buffer, pH 5.0, read-out: Aqueous Solubility (Pion's Buffer)): 0.26 µg/mL (≈ 0.589 µM) | solubility ([2]; Pion's buffer, pH 6.2, aqueous buffer, read-out: Aqueous Solubility (Pion's Buffer)): 0.38 µg/mL (≈ 0.86 µM) | solubility ([2]; Pion's buffer, pH 7.4, aqueous buffer, read-out: Aqueous Solubility (Pion's Buffer)): 0.3 µg/mL (≈ 0.679 µM) | solubility kinetic ([2]; pH-buffered aqueous solution, aqueous buffer, across a range of pH): < 2.3 µM | solubility ([2]; pH-buffered aqueous solution, aqueous buffer, across a range of pH, read-out: aqueous solubility): < 1 µg/mL
